The results in this text go back to patent US20030032771A1, “Peptide inhibitors of cellular proliferation” (priority 2001, published 2003).

In the assay the test system is Drosophila early embryos (syncytial blastoderm). Put plainly: Cytological analysis of mitosis in live Drosophila melanogaster embryos after microinjection (time-lapse confocal microscopy). The format is in vivo. As to the method: Embryo microinjections. Microinjections of 0-2 hour Drosophila embryos were carried out as described previously (Sharp et al., J. Cell Biol. 144:125-138 (1999)). Briefly, embryos were initially injected with rhodamine-conjugated bovine tubulin (purchased from Molecular Probes or made in our own laboratory) allowed to recover for 5 minutes and then injected with antibodies or with buffer alone for controls. Because, in our hands, tubulin injections prior to the cortical migration of nuclei at cycle 10 […] normally halts development, embryos were injected with antibodies during cycle 11.
Time-lapse laser scanning confocal microscopy. All images were acquired on a Leica TCS SP confocal microscope run by the Leica TCS software. Time-series were generated using the ‘Time Series’ function contained in the control panel. Each image results from two accumulated (averaged) scans of the sample and new images were acquired every 5 seconds. Because changes in the MT arrays of early embryos occur so quickly, all of the images shown and analyzed in this study represent 1 focal plane (no z-series' were performed). This allowed for the highest temporal and spatial resolution with the least amount of bleaching and other damage resulting from multiple laser scans.
The peptide expressed as described in Example 1 was delivered to Drosophila early embryos (synicytial blastoderm) by microinjections. Drosophila is a much studied organism; its genome has been fully sequenced and its genetics and biochemistry are well understood. In addition, it provides a convenient system for live cytological analyses of mitosis. In the early embryo (syncytial blastoderm) the nuclei form a two-dimensional sheet interconnected by cytoplasm, which proceed through mitosis meta-cynchronously. Because of this, it is possible to inject fluorescent probes like rhodamine tubulin into fly embryos that are transgenically carrying Green Fluorescent protein (GFP)-labeled chromosomes to watch chromosome move on spindle microtubules in real-time. […]

Regarding “GEKETPVQKCQRLQIEMNELLNEVAALQVDRKVADEEKQSYDAVVATVISTAR (Drosophila melanogaster) [peptide underlined in FIG. 4]”, for the setting “embryo microinjected with peptide, still images at about 80 seconds intervals, FIG. 5 panels C-E, rhodamine tubulin, GFP-histone”, the “formation of two daughter nuclei on mitotic spindles (chromosome separation from the metaphase plate)” value is “no spindles upon which two daughter nuclei are formed”. In addition, where the note is “embryos injected with the peptide, during mitosis”, the “defects in spindle structure” value is given as “no significant defects in spindle structure”. The “ability of chromosomes to separate in proliferative cells” value (initial studies, peptide-injected Drosophila embryos) is “strongly and specifically inhibits”.
